Consider 36 compounds from PubChem BioAssay AID1645865 (Buhrlage Lab, Dana-Farber Cancer Institute and Novartis …, 2021).

Structures are written as SMILES. Active and inactive are the calls of the source.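 Rule for the calls: active = maximal inhibition of the USP30 enzyme reaching 30% or more across the dose series; inactive = the rest.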 Some results are limits rather than exact numbers.

For the assay, the target named is Ubiquitin carboxyl-terminal hydrolase 30 (Homo sapiens) (UniProt Q70CQ3). Put plainly: ubiquitin-specific protease 30 DUB inhibitors, concentration-effect, biochemical, validation of primary actives (AID 1645865). To be noted: purified USP30, Ub-rhodamine cleavage, fluorescence, 2 h.
Chain of Ubiquitin carboxyl-terminal hydrolase 30 (Homo sapiens) (Q70CQ3 whole entry, looked up): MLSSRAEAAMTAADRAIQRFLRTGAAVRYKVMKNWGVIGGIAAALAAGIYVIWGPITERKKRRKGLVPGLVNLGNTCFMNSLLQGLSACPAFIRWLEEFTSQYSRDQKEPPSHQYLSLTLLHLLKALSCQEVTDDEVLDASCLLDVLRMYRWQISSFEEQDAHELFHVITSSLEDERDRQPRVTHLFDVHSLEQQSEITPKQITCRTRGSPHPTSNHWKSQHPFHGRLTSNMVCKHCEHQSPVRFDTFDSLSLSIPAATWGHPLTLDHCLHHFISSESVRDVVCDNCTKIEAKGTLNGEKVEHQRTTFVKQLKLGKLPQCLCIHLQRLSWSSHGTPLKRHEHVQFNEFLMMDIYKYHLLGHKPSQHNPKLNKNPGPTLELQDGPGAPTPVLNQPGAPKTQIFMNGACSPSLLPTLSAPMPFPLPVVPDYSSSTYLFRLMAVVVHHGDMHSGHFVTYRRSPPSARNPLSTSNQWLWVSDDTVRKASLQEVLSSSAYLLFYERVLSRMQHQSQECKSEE

For the compound `O=C(Nc1ccccc1)c1nc2c(s1)CCN(C(=O)c1ccccc1)CC2`, the IC50 is > 50 µM (inactive).
The same measure for `CC(C)CCn1c(=O)c2ccccc2n2c(CCC(=O)NC3CCCCCC3)nnc12`: > 50 µM (inactive); for `Cc1nn(-c2ccccc2)c2c1N=C1C(Cl)=CC(Cl)=CN1C21C(=O)Nc2ccccc21` (stereo unspecified): > 50 µM (inactive).
The same measure for `Cc1ccccc1OCCSc1nc2ccccc2n1CC(=O)NC1CC1`: 15.5 µM.
The same measure for `Cc1cc(C)nc(-n2nc(C)c3c2NC(=O)CSC3c2ccccc2F)n1` (stereo unspecified): 29.5 µM.
For the compound `Cc1ccc(NC(=O)Cn2c(Nc3cccc(C)c3)nc(C)cc2=O)cc1`, the half-inhibitory concentration (IC50) is 26.6 µM.
For the compound `CCNc1oc(-c2ccc(S(=O)(=O)N3CCCCC3)cc2)nc1C#N`, the concentration for half-maximal inhibition (IC50) was 21.9 µM.
The result for `O=C(CSc1nnnn1-c1ccccc1)Nc1ccccc1` reads 31.9 µM; that for `COc1ccc(NC(=O)c2nnn(-c3cccc(C)c3)c2C)cc1`, > 50 µM (inactive); that for `COc1ccc(NC(=O)c2nnn(-c3ccccc3C)c2C)cc1OC`, > 50 µM (inactive).
As for `Nc1c(C(=O)NCCc2ccccc2)nnn1-c1ccc(F)cc1`, the IC50 was 31.2 µM.
The same measure for `O=C(Nc1cccc2ccccc12)C1CCCN(S(=O)(=O)Cc2ccccc2)C1` (stereo unspecified): 4.36 µM; for `O=C(Nc1ccc(N2CCOCC2)cc1)c1ccc(-c2ccc(N3CCCC3)nn2)cc1`: > 50 µM (inactive); for `O=S1(=O)CCN(Cc2ccccc2)c2c(F)nc(N3CCCCC3)c(F)c21`: > 50 µM (inactive).
The result for `COc1ccc(NS(=O)(=O)c2ccc(NC(=O)Nc3ccc(Cl)cc3)cc2)cc1` reads 18.3 µM.
The same measure for `c1ccc(-c2ccc(NCc3ccc4c(c3)OCO4)nn2)cc1`: 35.1 µM; for `O=c1c2ccccc2oc2nc(-c3cccs3)n(-c3ccccc3)c(=O)c12`: 2.42 µM.
Turning to `COc1cc2c(=O)n(CCC(=O)NCc3ccco3)c(=O)n(CC(=O)Nc3c(C)cccc3C)c2cc1OC`, the IC50 was > 50 µM (inactive).
In the case of `Cc1ccc(NC(=O)c2c3c(nc4ccccc24)CCCCC3)c(C)c1`, the IC50 is > 50 µM (inactive).
The same measure for `CCCCc1ccc(-c2cc(C(=O)NCCN3CCOCC3)c3cc(Br)ccc3n2)cc1`: 2.31 µM; for `COc1ccc(/C=C/c2ccnc3nc(-n4cccc4)nn23)cc1`: > 50 µM (inactive).
The same measure for `CC(C)c1nc2sc3c(N(CCO)CCO)ncnc3c2c2c1COC(C)(C)C2`: > 50 µM (inactive); for `O=C(Nc1ccccc1)C1CCCN(C(=O)c2cc3ccccc3[nH]2)C1` (stereo unspecified): 25.3 µM; for `Cc1ccc(-c2c(C(=O)Nc3ccc(S(N)(=O)=O)cc3)oc(=O)c3ccccc23)cc1`: 29.2 µM.
As for `Cc1cnnn1-c1ccc(C(=O)Nc2ccc(Cl)cc2)cc1`, the IC50 is 29.5 µM.
The result for `N#Cc1ccc(Cc2ncc(C(F)(F)F)cc2Cl)s1` reads > 50 µM (inactive); that for `Cc1cc(C(=O)CSc2nc3ccccc3[nH]2)c(C)n1Cc1ccco1`, > 50 µM (inactive); that for `Cc1ccc(O)c(-c2cc(C(=O)Nc3ccccc3Cl)[nH]n2)c1`, 5.93 µM.
For `Cc1ccccc1NC(=O)C(C)n1c(=O)cc(-c2ccccc2)c2c(C)nn(C)c21` (stereo unspecified), the 50% inhibitory concentration (IC50) is 2.45 µM.
The same measure for `CCn1cc(NC(=O)CN2CCC3(CC=CCOC3)CC2)c(C)n1`: > 50 µM (inactive).
The result for `c1ccc(-c2nc(-c3nnn(-c4ccccc4)c3-c3ccncc3)no2)cc1` reads 2.29 µM; that for `O=C(Cc1cccnc1)Nc1ccc(N2CCN(C3CCCCC3)C2=O)nc1`, > 50 µM (inactive); that for `Cc1ccc(C(=O)Nc2nc3n(n2)C(c2ccccc2)CC(=O)N3)cc1` (stereo unspecified), 24.4 µM.
The same measure for `Cc1ccc2nc(N3CCc4ccccc4C3)c3nncn3c2c1`: > 50 µM (inactive).
Take `CCOc1ccc(NC(=O)Cn2c(=O)n(CCC(=O)NCc3ccccc3OC)c(=O)c3ccccc32)cc1`: the IC50 is 3.39 µM.
The same measure for `CC(=O)N1CCc2cc(S(=O)(=O)NCCC(=O)Nc3cccc(C)c3C)ccc21`: 39 µM.
